# Patent US10072003B2, “Tetrahydronaphthyridine derivatives as mGluR2-negative allosteric modulators, compositions, and their use” (Merck Sharp & Dohme Corp., priority 2014, dated 2018)
# Target: recombinant human mGluR2 (Homo sapiens (Human), UniProt Q14416)
# Experiment: FLIPR Ca2+ mobilization antagonist assay in CHO dhfr- cells expressing human mGluR2 and Gα16
# Type: cell-based
# Conditions: antagonist response after addition of 2,500 nM glutamate, Fluo-4 AM, FLIPR384
# Outline: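 CHO dhfr- cells stably co-expressing human mGluR2 and Gα16, Fluo-4 AM loaded, preincubated with compound, then challenged with 2,500 nM glutamate; Ca2+ response read by FLIPR. Maximum calcium response vs concentration fitted to four-parameter logistic for IC50.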
# Chain of recombinant human mGluR2 (Q14416 19-872): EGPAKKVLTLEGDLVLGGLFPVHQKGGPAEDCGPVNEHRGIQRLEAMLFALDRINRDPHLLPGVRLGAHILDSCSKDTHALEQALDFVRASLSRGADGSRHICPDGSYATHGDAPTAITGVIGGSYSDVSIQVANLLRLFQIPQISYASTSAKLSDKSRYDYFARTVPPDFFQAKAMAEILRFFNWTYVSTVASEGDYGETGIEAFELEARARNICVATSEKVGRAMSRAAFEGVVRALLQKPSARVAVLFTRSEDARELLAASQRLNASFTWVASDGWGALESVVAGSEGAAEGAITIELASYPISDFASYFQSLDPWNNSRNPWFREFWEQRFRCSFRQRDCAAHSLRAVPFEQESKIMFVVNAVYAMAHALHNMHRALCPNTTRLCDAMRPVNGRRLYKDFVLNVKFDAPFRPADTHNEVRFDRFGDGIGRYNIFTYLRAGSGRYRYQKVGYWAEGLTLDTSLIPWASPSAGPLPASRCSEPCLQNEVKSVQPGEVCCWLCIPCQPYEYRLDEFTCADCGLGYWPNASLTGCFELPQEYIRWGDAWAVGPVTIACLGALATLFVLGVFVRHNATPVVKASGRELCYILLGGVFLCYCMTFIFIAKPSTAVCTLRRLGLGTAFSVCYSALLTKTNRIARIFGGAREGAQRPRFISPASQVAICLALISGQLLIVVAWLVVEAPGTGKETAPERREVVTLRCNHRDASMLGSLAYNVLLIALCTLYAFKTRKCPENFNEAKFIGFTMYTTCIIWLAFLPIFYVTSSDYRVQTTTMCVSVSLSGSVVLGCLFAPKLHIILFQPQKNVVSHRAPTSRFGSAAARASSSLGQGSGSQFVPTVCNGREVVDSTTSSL
row,SMILES,IC50
1,"NC(=O)c1cc(-c2cnn(C(F)F)c2)c2c(n1)CN(Cc1ccnc(C(F)(F)F)c1)CC2 [Example 2-5, 4-[1-(difluoromethyl)-1H-pyrazol-4-yl]-7-{[2-(trifluoromethyl)pyridin-4-yl]methyl}-5,6,7,8-tetrahydro-1,7-naphthyridine-2-carboxamide]",30.3 nM
2,"CC1(C)CC(F)(CN2CCc3c(-c4ccc(F)cc4F)cc(C(N)=O)nc3C2)CO1 (single isomer, unassigned) [Example 14-1B]",17.8 nM
3,"NC(=O)c1cc(-c2ccc(F)cc2)c2c(n1)CN(CCc1cccnc1N)CC2 [Example 1-4, 7-(2-(2-aminopyridin-3-yl)ethyl)-4-(4-fluorophenyl)-5,6,7,8-tetrahydro-1,7-naphthyridine-2-carboxamide]",83.5 nM
4,"COc1cc(C(N2CCc3c(C4=CCC(C)CC4)cc(C(N)=O)nc3C2)C(F)(F)F)ccn1 (racemic) [Example 4-3A, 4-((S) and (R)-4-methylcyclohex-1-en-1-yl)-7-((S) and (R)-2,2,2-trifluoro-1-(2-methoxypyridin-4-yl)ethyl)-5,6,7,8-tetrahydro-1,7-naphthyridine-2-carboxamide]",51.2 nM
5,"NC(=O)c1cc(-c2cnc(C(F)F)s2)c2c(n1)CN(Cc1ccnc(OC(F)F)c1)CC2 [Example 2-15, 7-{[2-(difluoromethoxy)pyridin-4-yl]methyl}-4-[2-(difluoromethyl)-1,3-thiazol-5-yl]-5,6,7,8-tetrahydro-1,7-naphthyridine-2-carboxamide]",45.2 nM
6,"CC1CCCN(c2cc(C(N)=O)nc3c2CCN(Cc2ccnc(C(F)(F)F)c2)C3)C1 (single isomer, unassigned) [Example 5-5A, (S) or (R)-4-(3-methylpiperidin-1-yl)-7-((2-(trifluoromethyl)pyridin-4-yl)methyl)-5,6,7,8-tetrahydro-1,7-naphthyridine-2-carboxamide]",18.4 nM
7,"COc1ccnc(CN2CCc3c(-c4ccc(Cl)cc4F)cc(C(N)=O)nc3C2)n1 [Example 9-7, 4-(4-chloro-2-fluorophenyl)-7-[(4-methoxypyrimidin-2-yl)methyl]-5,6,7,8-tetrahydro-1,7-naphthyridine-2-carboxamide]",11.7 nM
8,"COc1cc(CN2CCc3c(-c4ccc(F)cc4F)cc(C(N)=O)nc3C2)ccn1 [Example 13-1, 4-(2,4-difluorophenyl)-7-((2-methoxypyridin-4-yl)methyl)-5,6,7,8-tetrahydro-1,7-naphthyridine-2-carboxamide]",7.8 nM
9,"CC1(C)CC(CN2CCc3c(-c4ccc(Cl)cc4F)cc(C(N)=O)nc3C2)CCO1 (single isomer, unassigned) [Example 1-5A, (R) or (S)-4-(4-chloro-2-fluorophenyl)-7-((2,2-dimethyltetrahydro-2H-pyran-4-yl)methyl)-5,6,7,8-tetrahydro-1,7-naphthyridine-2-carboxamide]",5.6 nM
